# Values of other authors in patent publication US11491120B2, “Pharmacological prophylactics against stress-induced affective disorders in females” (The Trustees of Columbia University in the City of New York, priority 2017, dated 2022).
# Tested on: NMDAR
# Details: cited from earlier work
smiles,measurement,value
CN[C@]1(c2ccccc2Cl)CCCCC1=O [(S)-ketamine],"Antagonism of the NMDAR, relative strength",four-fold stronger antagonist
